Laboratory results published in patent US20010051184A1, “METHOD FOR USING SOLUBLE CURCUMIN TO INHIBIT PHOSPHORYLASE KINASE IN INFLAMMATORY DISEASES” (priority 1999, published 2001).

Experiments:
[1] = system: parakeratosis of stratum corneum; experiment: Severity of parakeratosis in treated psoriasis; format: in vivo, human; conditions: mean±SD, untreated 94.6±4.3%
Source text: With consent, punch biopsies were collected (6 mm) from active plaques of 10 patients with active untreated psoriasis, from resolving plaques from 10 patients each treated with curcumin alcoholic gel (1%) for 4-6 weeks, and with Dovonex ointment for 6-18 months. Normal skin was also biopsied from 10 non-psoriatic patients to monitor the results. Parakeratosis, assessed histologically by the loss of granular layer and the presence of nuclei of immature keratinocytes within the stratum comeum, reflects in part the migratory capacity of basal keratinocytes towards the stratum comeum. The severity of parakeratosis is assessed as % involvement of a 4 mm linear strip of stratum comeum. An average of three sections per biopsy specimen was used for data analysis.

psoriatic plaques = experiment: Clinical resolution of psoriatic plaques; format: in vivo, human; conditions: clinical observations
Source text: With consent, punch biopsies were collected (6 mm) from active plaques of 10 patients with active untreated psoriasis, from resolving plaques from 10 patients each treated with curcumin alcoholic gel (1%) for 4-6 weeks, and with Dovonex ointment for 6-18 months. Normal skin was also biopsied from 10 non-psoriatic patients to monitor the results.
In this study, the anti-psoriatic activity of curcumin is reported. Also known as diferuloylmethane, curcumin is a component in spices such as turmeric and ginger. […] Based on clinical observations that untreated psoriatic plaques resolve within 4-6 weeks with curcumin and between 6-18 months or more with Dovonex, the results of this Example lead to the conclusion that curcumin is at least as effective as Dovonex in producing clinical resolution of psoriatic plaques.

CD3+ T lymphocytes = CD3+ T lymphocytes in curcumin-treated psoriatic skin (immunohistochemistry, FIG. 9); format: in vivo, human; conditions: FIG. 9b; T lymphocytes present only within dermal blood vessels
epidermal CD8+ T cells = experiment: Epidermal CD8+ T-cell density in treated psoriasis; format: in vivo, human; conditions: mean, untreated 38.2
Protocol: (§1) With consent, punch biopsies were collected (6 mm) from active plaques of 10 patients with active untreated psoriasis, from resolving plaques from 10 patients each treated with curcumin alcoholic gel (1%) for 4-6 weeks, and with Dovonex ointment for 6-18 months. Normal skin was also biopsied from 10 non-psoriatic patients to monitor the results. Biopsy specimens for immunocytochemistry were embedded in OCT compound (Tissue-Tek), snap-frozen in liquid nitrogen and stored at −70° C. Serial cryostat sections (4 Tm) were mounted on gelatin-coated slides and air-dried for 30 mins at room temperature. The mounted sections were then freeze-dried for 4 hours, fixed in acetone for 20 mins at room temperature, and air-dried for 5 mins prior to immunostaining. Monoclonal antibodies (as listed at Table 7), were added to the sections, which were then incubated for 60 mins at room temperature, washed in phosphate-buffered saline (PBS) pH 7.6, and overlaid with peroxidase conjugate. All monoclonal antibodies had been obtained from Becton-Dickinson and were used at 1:100 dilution. The sections were then washed with PBS and the peroxidase color developed using diaminobenzidine. Negative controls from all patients were processed as above, omitting the monoclonal antibodies. […] The density of the epidermal CD8+ T-cells was enumerated and quantified as the number of epidermal CD8+ T cells per hpf. […]

[2] = Solubility study on curcumin; format: physicochemical; conditions: for Solubility result: 0.5 g of curcumin
Protocol: Table 1 reports the results of a solubility study on curcumin. […] Curcumin is also not soluble in cold mineral oil or hot mineral oil. However, curcumin is soluble in 70% isopropyl alcohol to at least the extent of 0.5 g/50 ml.

phosphorylase kinase = experiment: Phosphorylase kinase activity in treated psoriatic epidermis (Example 6); format: in vivo, human; conditions: mean±SD, n=10; curcumin alcoholic gel (1%) 4-6 weeks, Dovonex ointment 6-18 months; untreated psoriasis 1204.6±804.3, normal skin 105.4±44.6
Protocol: With consent, punch biopsies were collected (6 mm) from active plaques of 10 patients with active untreated psoriasis, from resolving plaques from 10 patients each treated with curcumin alcoholic gel (1%) for 4-6 weeks, and with Dovonex ointment for 6-18 months. Normal skin was also biopsied from 10 non-psoriatic patients to monitor the results. From each site, skin biopsy samples (6 mm punch) were stored at −70° C., and processed thereafter as previously described (Heng et al. (1994), supra). Briefly, each frozen sample, with the epidermal surface facing upwards, was placed in a glass tube to which 3 ml Tris-HCl buffer (10 mM Tris-HCl, pH 7.8, 1 mM dithiothreitol (DDT), 3 mM MgSO4 and 1 mM EGTA) was added. This was homogenized vigorously with a Teflon plunger in a TRIS-R model K41 homogenizer for 1 sec. Homogenization was repeated if necessary. The lysate of epidermal cells, separated from the dermis, was in the cytosolic solution. The fibroblasts that were inadvertently detached, together with the relatively intact piece of dermis, were removed by decanting the cytosolic solution into a 5 ml capacity polypropylene test tube. […] The filter paper containing […] was counted in a liquid scintillation counter. Enzyme activity was determined based on the standard curve prepared with phosphorylase kinase of known activity supplied by Sigma Co (St. Louis, Mo.).

HLA-DR+ cells = experiment: HLA-DR expression in treated psoriasis; format: in vivo, human
Protocol: as §1, with “diaminobenzidine.” for “diaminobenzidine. Negative controls from all patients were processed as above, omitting the monoclonal antibodies.”, “activated HLA+ inflammatory cell population” for “density of the epidermal CD8+ T-cells”, “assessed as abundant (200-500 or more cells/hpf), moderate (50-200 cells/hpf),” for “enumerated”, “sparse (1-50/hpf).” for “quantified as the number of epidermal CD8+ T cells per hpf.”

TRR+ keratinocytes = experiment: Transferrin receptor (TRR) expression by keratinocytes in treated psoriasis; format: in vivo, human; conditions: mean, n=10; treated resolving psoriasis; untreated 60.1%, normal skin 4.3%
Protocol: With consent, punch biopsies were collected (6 mm) from active plaques of 10 patients with active untreated psoriasis, from resolving plaques from 10 patients each treated with curcumin alcoholic gel (1%) for 4-6 weeks, and with Dovonex ointment for 6-18 months. Normal skin was also biopsied from 10 non-psoriatic patients to monitor the results. Biopsy specimens for immunocytochemistry were embedded in OCT compound (Tissue-Tek), snap-frozen in liquid nitrogen and stored at −70° C. Serial cryostat sections (4 Tm) were mounted on gelatin-coated slides and air-dried for 30 mins at room temperature. The mounted sections were then freeze-dried for 4 hours, fixed in acetone for 20 mins at room temperature, and air-dried for 5 mins prior to immunostaining. Monoclonal antibodies (as listed at Table 7), were added to the sections, which were then incubated for 60 mins at room temperature, washed in phosphate-buffered saline (PBS) pH 7.6, and overlaid with peroxidase conjugate. All monoclonal antibodies had been obtained from Becton-Dickinson and were used at 1:100 dilution. […] The expression of TRR on basal and suprabasal keratinocytes was quantified as the percentage of TRR+ keratinocytes per rete ridge. The keratinocytes of 10 consecutive rete ridges were assessed in for each biopsy and the results averaged.

Solubility in 70% isopropyl alcohol ([2]; 70% isopropyl alcohol): ≥ 0.5 g/50 ml
Solubility result ([2]; 70% isopropyl alcohol, 5 ml): Soluble (some precipitate?
Solubility result ([2]; 70% isopropyl alcohol, 50 ml): Soluble (no precipitate)
Solubility result ([2]; Cold water, 5 ml): Not soluble (precipitate present)
Solubility result ([2]; Cold water, 50 ml): Not soluble (precipitate present)
Solubility result ([2]; Cold water, 500 ml): Not soluble (precipitate present)
Solubility result ([2]; Mineral oil (140° F.), 5 ml): Not soluble (precipitate present)
Solubility result ([2]; Mineral oil (140° F.), 50 ml): Not soluble (precipitate present)
Solubility result ([2]; Mineral oil, 5 ml): Not soluble (precipitate present)
Solubility result ([2]; Mineral oil, 50 ml): Not soluble (precipitate present)
Solubility result ([2]; Water (200° F.), 5 ml): Not soluble (precipitate present)
Solubility result ([2]; Water (200° F.), 50 ml): Not soluble (precipitate present)
Solubility result ([2]; Water (200° F.), 500 ml): Not soluble (precipitate present)
Solubility ([2]; cold mineral oil): not soluble
Solubility ([2]; cold water): not soluble
Solubility ([2]; hot mineral oil): not soluble
Solubility ([2]; hot water): not soluble
SMILES: COc1cc(/C=C/C(=O)CC(=O)/C=C/c2ccc(O)c(OC)c2)ccc1O [curcumin, (E, E) 1,7-bis(4-hydroxy-3-methoxyphenyl)-1,6-heptadiene-3,5-dione]
Parakeratosis, linear involvement of stratum corneum [1]: 1.4±2.4%
Time for psoriatic plaques to resolve under curcumin treatment (psoriatic plaques): 4-6 weeks
CD3+ T lymphocytes in epidermis of treated resolving psoriatic skin (CD3+ T lymphocytes): lack of T lymphocytes in epidermis
Number of epidermal CD8+ cells/hpf (epidermal CD8+ T cells): 0.6 cells/hpf
Phosphorylase kinase activity in treated psoriatic epidermis (phosphorylase kinase): 207.2±97.6 units/mg protein
Overall HLA-DR expression (HLA-DR+ inflammatory cell population), grade per specimen (HLA-DR+ cells; 10 skin specimens per treated group, untreated abundant in 10/10): sparse (sparse (1-50/hpf))
HLA-DR expression on endothelial cells and keratinocytes (HLA-DR+ cells; treated psoriasis, untreated strongly positive): not observed
Percentage of TRR+ keratinocytes/rete ridge (TRR+ keratinocytes): 4.3%
